Measured values: ChEMBL document CHEMBL4346752, “Discovery and evaluation of novel nitrodihydroimidazooxazoles as promising anti-tuberculosis agents” (Bioorg Med Chem Lett, 2019)
Values after ≈ are worked out from the molar mass of the structure shown.

Tested on: Mycobacterium tuberculosis variant bovis
Assay: Antimycobacterial activity against Mycobacterium bovis ATCC 35737 assessed as reduction in bacterial cell growth incubated for 8 days by alamar blue staining based assay
Assay type: functional
Settings: ATCC 35737, 192 h

## C[C@]1(CN2CCc3nc(C4CCCCC4)ccc3C2)Cn2cc([N+](=O)[O-])nc2O1
  MIC: 0.25 µg/mL (≈ 0.629 µM)

## C[C@]1(CN2CCc3nc(-c4ccc(F)cc4)nnc3C2)Cn2cc([N+](=O)[O-])nc2O1
  MIC: 0.5 µg/mL (≈ 1.22 µM)

## C[C@]1(CN2CCn3cc(-c4ccc(F)c(F)c4)nc3C2)Cn2cc([N+](=O)[O-])nc2O1
  MIC: 1 µg/mL (≈ 2.4 µM)

## C[C@]1(CN2CCc3nc(-c4ccc(F)c(Cl)c4)ccc3C2)Cn2cc([N+](=O)[O-])nc2O1
  MIC: ≤ 0.0625 µg/mL

## C[C@]1(CN2CCc3sc(-c4ccc(F)cc4)nc3C2)Cn2cc([N+](=O)[O-])nc2O1
  MIC: 0.25 µg/mL (≈ 0.602 µM)

## C[C@]1(CN2CCc3nc(-c4cccc(Cl)c4F)ccc3C2)Cn2cc([N+](=O)[O-])nc2O1
  MIC: ≤ 0.0625 µg/mL

## C[C@]1(CN2CCc3nc(-c4ccc(F)cc4F)ccc3C2)Cn2cc([N+](=O)[O-])nc2O1
  MIC: ≤ 0.0625 µg/mL

## C[C@]1(CN2CCc3nc(-c4ccc(F)cc4)sc3C2)Cn2cc([N+](=O)[O-])nc2O1
  MIC: 0.125 µg/mL (≈ 0.301 µM)

## C[C@]1(CN2CCc3nc(-c4ccccc4)ccc3C2)Cn2cc([N+](=O)[O-])nc2O1
  MIC: 0.25 µg/mL (≈ 0.639 µM)

## C[C@]1(CN2CCc3nc(C4CC4)ccc3C2)Cn2cc([N+](=O)[O-])nc2O1
  MIC: 0.5 µg/mL (≈ 1.41 µM)

## C[C@]1(CN2CCc3nc(-c4cc(F)cc(F)c4)ccc3C2)Cn2cc([N+](=O)[O-])nc2O1
  MIC: ≤ 0.0625 µg/mL

## C[C@]1(CN2CCc3nc(-c4ccc(Cl)cc4)ccc3C2)Cn2cc([N+](=O)[O-])nc2O1
  MIC: 2 µg/mL (≈ 4.7 µM)

## C[C@]1(CN2CCc3oc(-c4ccc(F)c(F)c4)nc3C2)Cn2cc([N+](=O)[O-])nc2O1
  MIC: 0.25 µg/mL (≈ 0.599 µM)

## C[C@]1(CN2CCc3nc(-c4ccc(F)c(F)c4)oc3C2)Cn2cc([N+](=O)[O-])nc2O1
  MIC: 0.125 µg/mL (≈ 0.299 µM)

## C[C@]1(CN2CCn3nc(-c4ccc(F)c(F)c4)nc3C2)Cn2cc([N+](=O)[O-])nc2O1
  MIC: 1 µg/mL (≈ 2.4 µM)

## C[C@]1(COc2ccc(N3CCC(Oc4ccc(OC(F)(F)F)cc4)CC3)cc2)Cn2cc([N+](=O)[O-])nc2O1
  MIC: ≤ 0.0625 µg/mL

## C[C@]1(CN2CCc3oc(-c4ccc(F)cc4)cc3C2)Cn2cc([N+](=O)[O-])nc2O1
  MIC: 1 µg/mL (≈ 2.51 µM)

## C[C@]1(CN2CCc3nc(-c4ccc(F)cc4)oc3C2)Cn2cc([N+](=O)[O-])nc2O1
  MIC: 0.25 µg/mL (≈ 0.626 µM)

## C[C@]1(CN2CCc3nc(-c4ccc(C(F)(F)F)cc4)ccc3C2)Cn2cc([N+](=O)[O-])nc2O1
  MIC: ≤ 0.0625 µg/mL

## C[C@]1(CN2CCc3nc(N4CCOCC4)ccc3C2)Cn2cc([N+](=O)[O-])nc2O1
  MIC: 0.5 µg/mL (≈ 1.25 µM)

## C[C@]1(CN2CCn3cc(-c4ccc(F)cc4)nc3C2)Cn2cc([N+](=O)[O-])nc2O1
  MIC: 1 µg/mL (≈ 2.51 µM)

## C[C@]1(CN2CCc3nc(C(F)(F)F)ccc3C2)Cn2cc([N+](=O)[O-])nc2O1
  MIC: 2 µg/mL (≈ 5.22 µM)

## C[C@]1(CN2CCc3nc(-c4ccc(C#N)cc4)ccc3C2)Cn2cc([N+](=O)[O-])nc2O1
  MIC: 2 µg/mL (≈ 4.8 µM)

## C[C@]1(CN2CCc3nc(-c4ccc(F)cc4)ccc3C2)Cn2cc([N+](=O)[O-])nc2O1
  MIC: ≤ 0.0625 µg/mL

## C[C@]1(CN2CCc3nc(C4CCOCC4)ccc3C2)Cn2cc([N+](=O)[O-])nc2O1
  MIC: 2 µg/mL (≈ 5.01 µM)

## C[C@]1(CN2CCc3nc(-c4ccc(OC(F)(F)F)cc4)ccc3C2)Cn2cc([N+](=O)[O-])nc2O1
  MIC: 8 µg/mL (≈ 16.8 µM)

## C[C@]1(CN2CCc3nc(-c4ccccc4)ncc3C2)Cn2cc([N+](=O)[O-])nc2O1
  MIC: 1 µg/mL (≈ 2.55 µM)

## C[C@]1(CN2CCc3nc(-c4cccc(F)c4F)ccc3C2)Cn2cc([N+](=O)[O-])nc2O1
  MIC: ≤ 0.0625 µg/mL

## C[C@]1(CN2CCc3nc(-c4ccccc4F)ccc3C2)Cn2cc([N+](=O)[O-])nc2O1
  MIC: 0.125 µg/mL (≈ 0.305 µM)

## C[C@]1(CN2CCc3nc(-c4cc(Cl)ccc4F)ccc3C2)Cn2cc([N+](=O)[O-])nc2O1
  MIC: ≤ 0.0625 µg/mL

## C[C@]1(CN2CCc3nc(-c4cc(F)cc(Cl)c4)ccc3C2)Cn2cc([N+](=O)[O-])nc2O1
  MIC: ≤ 0.0625 µg/mL

## C[C@]1(CN2CCc3nc(-c4cc(F)c(F)c(F)c4)ccc3C2)Cn2cc([N+](=O)[O-])nc2O1
  MIC: ≤ 0.0625 µg/mL

## C[C@]1(CN2CCc3nc(-c4ccc(F)c(F)c4)ccc3C2)Cn2cc([N+](=O)[O-])nc2O1
  MIC: ≤ 0.0625 µg/mL

## C[C@]1(CN2CCc3nc(N4CCC(F)(F)CC4)ccc3C2)Cn2cc([N+](=O)[O-])nc2O1
  MIC: 0.5 µg/mL (≈ 1.15 µM)

## C[C@]1(CN2CCc3nc(-c4ccc(Cl)cc4F)ccc3C2)Cn2cc([N+](=O)[O-])nc2O1
  MIC: ≤ 0.0625 µg/mL

## C[C@]1(CN2CCc3nc(N4CCCCC4)ccc3C2)Cn2cc([N+](=O)[O-])nc2O1
  MIC: 0.5 µg/mL (≈ 1.25 µM)

## C[C@]1(CN2CCc3oc(-c4ccc(F)cc4)nc3C2)Cn2cc([N+](=O)[O-])nc2O1
  MIC: 0.5 µg/mL (≈ 1.25 µM)

## C[C@]1(CN2CCc3nc(-c4ccc(Cl)c(F)c4)ccc3C2)Cn2cc([N+](=O)[O-])nc2O1
  MIC: ≤ 0.0625 µg/mL

## C[C@]1(CN2CCc3nc(-c4cc(F)ccc4Cl)ccc3C2)Cn2cc([N+](=O)[O-])nc2O1
  MIC: ≤ 0.0625 µg/mL

## C[C@]1(CN2CCc3nc(-c4cc(F)ccc4F)ccc3C2)Cn2cc([N+](=O)[O-])nc2O1
  MIC: ≤ 0.0625 µg/mL

## C[C@]1(CN2CCc3nc(-c4cccc(F)c4)ccc3C2)Cn2cc([N+](=O)[O-])nc2O1
  MIC: ≤ 0.0625 µg/mL
